Test results as given in the supplement of paper PMC10307832.

Key:
Test in all cases: relative viability (nuclei count vs DMSO), 5 days (fraction); higher = more cells survive
[1] = compound: C(C(=O)C(=O)O)Br [Bromopyruvate] + CC(C)C[C@H](NC(=O)[C@H](Cc1ccccc1)NC(=O)c1cnccn1)B(O)O [Bortezomib] (partner 0.002 µM)
Summary of the method: (§1)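 Relative viability was taken as the ratio of nuclei in treated wells to nuclei in vehicle wells. Lung cancer cell lines in 1536-well plates received compounds by pin tool one day after seeding, either one drug alone or a fixed anchor-drug dose plus five library-drug doses (not always all listed) in √10 steps. Nuclei were counted on 4× images after 5 days of treatment, and values are medians of duplicate plates.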

[2] = compound: CC(O)(CS(=O)(=O)c1ccc(F)cc1)C(=O)Nc1ccc(C#N)c(C(F)(F)F)c1 [Bicalutamide] + CC(=O)Nc1cccc(-n2c(=O)n(C3CC3)c(=O)c3c(Nc4ccc(I)cc4F)n(C)c(=O)c(C)c32)c1 [Trametinib] (partner 0.02 µM)
Summary of the method: as §1

[3] = compound: C(C(=O)C(=O)O)Br [Bromopyruvate] + Cc1nc(Nc2ncc(C(=O)Nc3c(C)cccc3Cl)s2)cc(N2CCN(CCO)CC2)n1 [Dasatinib] (partner 0.075 µM)
Summary of the method: as §1

Bicalutamide + Foretinib = compound: CC(O)(CS(=O)(=O)c1ccc(F)cc1)C(=O)Nc1ccc(C#N)c(C(F)(F)F)c1 [Bicalutamide] + COc1cc2c(Oc3ccc(NC(=O)C4(C(=O)Nc5ccc(F)cc5)CC4)cc3F)ccnc2cc1OCCCN1CCOCC1 [Foretinib] (partner 0.25 µM)
Summary of the method: as §1

**Q.** Which relative viability ([1]; first compound 1 µM) does the source give for EPLC-272H here?
**A.** 0.844

**Q.** And the relative viability ([1]; first compound 3.162 µM)?
**A.** 0.952

**Q.** And the relative viability ([1]; first compound 10 µM)?
**A.** 1.03

**Q.** What about the relative viability ([1]; first compound 31.62 µM) of the same cell line?
**A.** 0.862

**Q.** And the relative viability ([1]; first compound 100 µM)?
**A.** 1.08

**Q.** What about the relative viability ([2]; first compound 0.08 µM) of the same cell line?
**A.** 0.315

**Q.** What about the relative viability ([2]; first compound 0.253 µM) of the same cell line?
**A.** 0.281

**Q.** And the relative viability ([2]; first compound 0.8 µM)?
**A.** 0.332

**Q.** What about the relative viability ([2]; first compound 2.53 µM) of the same cell line?
**A.** 0.281

**Q.** And the relative viability ([3]; first compound 1 µM)?
**A.** 0.354

**Q.** And the relative viability ([3]; first compound 3.162 µM)?
**A.** 0.309

**Q.** What about the relative viability ([3]; first compound 10 µM) of the same cell line?
**A.** 0.462

**Q.** And the relative viability ([3]; first compound 31.62 µM)?
**A.** 0.374

**Q.** And the relative viability ([3]; first compound 100 µM)?
**A.** 0.455

**Q.** What about the relative viability (Bicalutamide + Foretinib; first compound 0.08 µM) of the same cell line?
**A.** 0.606

**Q.** And the relative viability (Bicalutamide + Foretinib; first compound 0.253 µM)?
**A.** 0.841

**Q.** And the relative viability (Bicalutamide + Foretinib; first compound 0.8 µM)?
**A.** 0.817

**Q.** And the relative viability (Bicalutamide + Foretinib; first compound 2.53 µM)?
**A.** 0.679
